Test results published in US6664224B2, “Quaternary ammonium salt and process for the preparation thereof” (priority 2000, dated 2003).
Read-outs that look alike come from different tables or passages of the source.

Tests used:
[1] = tested on: Bacillus substilis ATCC 6633; assay: Minimum bactericidal concentration (MBC) against bacteria; type: cell-based, Bacillus subtilis; conditions: culture 37° C. 24 hours
Description: (§1) A bacteria solution in the initial stage of logarithmic productive phase which had been adjusted with a nutrient broth according to an ordinary sterilized water dilution method such that the concentration of bacterial suspension reached 10^6 cell/ml was brought into contact with chemical solutions having concentrations which vary stepwise at a temperature of 30° C. for 30 minutes, and then transplanted to a nutrient broth where it was then allowed to stand at a temperature of 37° C. for 24 hours for culture. The nutrient broth was then examined to see if the proliferation of bacteria occurred. Thus, MBC was determined.
(§2) Five kinds of gram-negative bacteria and four kinds of gram-positive bacteria were used as sample bacteria.
(§3) BAMP-6 (Example 12), BAMD-6,8 (Example 13), BAMT-6 (Example 17) and benzalkonium chloride (Comparative Example 1) were determined for MBC value against 5 kinds of gram-negative bacteria and 4 kinds of gram-positive bacteria in the same manner as in Test Example 1.

Erythrocyte = assay: Minimum hemolytic activity concentration against erythrocyte; type: cell-based; conditions: human erythrocyte, 37° C. 1 hour, O.D.540, 50% hemolysis
Description: Human blood was collected. The sample blood was then mixed with the equal amount of alsebar solution (glucose: 2.05 g; NaCl: 0.42 g; sodium citrate: 0.8 g; citric acid: 0.55 g; pH: 6.1). The mixture was then stored at a temperature of 4° C. Shortly before used for experiment, the alsebar stored blood was subjected to centrifugal separation. Thus, the supernatant liquid and the leukocyte layer on the erythrocyte were removed. To the erythrocyte was then added PBS in an amount of […] that of the erythrocyte to obtain a 50% erythrocyte. 10 μl of the 50% erythrocyte was then mixed with 990 μl of each of chemicals which had been diluted with PBS in amounts varying stepwise. The erythrocyte was acted upon by the chemical at a temperature of 37° C. for 1 hour. The mixture was then subjected to centrifugal separation. The supernatant liquid was collected for the measurement of the optical density at 540 nm (O.D.540). Separately, the foregoing procedure was followed except that no chemicals were used to prepare a 0% hemolytic control. The foregoing procedure was followed except that Milliq water was used instead of PBS to prepare a 100% hemolytic control. For the minimum hemolytic activity concentration of chemical, the minimum concentration at which the hemolytic concentration is […] was determined.

[2] = tested on: Escherichia coli K12 W 3110; assay: Minimum development inhibiting concentration (MIC) against bacteria, broth dilution method; type: cell-based; conditions: for MIC: Escherichia coli, K12W3110, 37° C. 24 hours; for MIC Escherichia coli K12 W 3110: 37° C. 24 hours
Description: A bacteria solution in stationary state which had been adjusted with a nutrient broth according to an ordinary broth dilution method such that the concentration of bacterial suspension reached 10^6 cell/ml was added to chemical solutions having concentrations which vary stepwise where it was then allowed to stand at a temperature of 37° C. for 24 hours for culture. The bacteria solution was then examined to see if the proliferation of bacteria occurred. Thus, MIC was determined.
Escherichia coli K12 W 3110 was used as a sample bacterium. Compounds obtained in Examples 1 to 9 and benzalkonium chloride prepared in Comparative Example 1 were used as test samples.
The compounds obtained in Examples 10 to 19 and benzalkonium chloride were determined for MIC value against Escherichia coli K12 W 3110 in the same manner as in Test Example 3.

[3] = tested on: Staphylococcus aureus IFO 12732; assay: Minimum bactericidal concentration (MBC) against bacteria; type: cell-based; conditions: culture 37° C. 24 hours
Description: as §1, §2, §3

[4] = tested on: Escherichia coli K12 W 3110; assay: as above; type: cell-based; conditions: culture 37° C. 24 hours
Description: as §1, §2, §3

[5] = tested on: Escherichia coli K12 OUT 8401; assay: as above; type: cell-based; conditions: culture 37° C. 24 hours
Description: as §1, §2, §3

Bacillus cereus IFO 3001 = assay: as above; type: cell-based; conditions: culture 37° C. 24 hours
Description: as §1, §2, §3

[6] = tested on: Bacillus subtilis IFO 3134; assay: as above; type: cell-based; conditions: culture 37° C. 24 hours
Description: as §1, §2, §3

[7] = tested on: Klebsiella pneumoniae ATCC 13883; assay: as above; type: cell-based; conditions: culture 37° C. 24 hours
Description: as §1, §2, §3

Proteus rettgeri NIT 96 = assay: as above; type: cell-based; conditions: culture 37° C. 24 hours
Description: as §1, §2, §3

[8] = tested on: Pseudomonas aeruginosa ATCC 27583; assay: as above; type: cell-based; conditions: culture 37° C. 24 hours
Description: as §1, §2, §3

[9] = tested on: Staphylococcus aureus IFO 12732; assay: MIC by agar plate dilution method; type: cell-based; conditions: S. aureus, 37° C. 24 hours
Description: (§4) MIC value was determined by an agar plate dilution method according to the Law of Japanese Society of Chemotherapy. In some detail, a bacteria solution in stationary state which had been adjusted with a nutrient broth such that the concentration of bacterial suspension reached 10^6 cell/ml was added to agar culture media containing chemical solutions having concentrations which vary in two stages where it was then allowed to stand at a temperature of 37° C. for 24 hours for culture. The bacteria solution was then examined to see if the proliferation of bacteria occurred. Thus, MIC was determined.
(§5) The following three kinds of bacteria were used as sample bacteria:
Staphylococcus aureus IFO 12732 (S. aureus)

[10] = tested on: Aspergillus niger IFO 6431; assay: Minimum development inhibiting concentration (MIC) against fungi; type: cell-based; conditions: A. niger; spore solution, 27° C. 1 week
Description: (§6) A sample fungus which had been pre-cultured was diluted with a wetting agent-containing sterilized water according to an ordinary broth dilution method to prepare a spore solution. 1 ml of the spore solution was then mixed with 1 ml of each of chemical solutions having concentrations which vary stepwise. The mixture was then cultured at a temperature of 27° C. in an incubator for 1 week. The culture was then examined for turbidity to see if the proliferation of fungus occurred. The minimum concentration at which no turbidity occurs was defined to be MIC.
(§7) Aspergillus niger IFO 6431 (A. niger) and Candida albicans ATCC10231 (C. albicans) were used as sample microorganisms.

[11] = tested on: Candida albicans ATCC10231; assay: as above; type: cell-based; conditions: C. albicans; spore solution, 27° C. 1 week
Description: as §6, §7

[12] = tested on: Pseudomonas aeruginosa ATCC27583; assay: MIC by agar plate dilution method; type: cell-based; conditions: P. aeruginosa, 37° C. 24 hours
Description: as §4, §5
Pseudomonas aeruginosa ATCC27583 (P. auruginosa); and […]

[13] = tested on: Escherichia coli K12 W 3110; assay: MIC by agar plate dilution method; type: cell-based; conditions: E. coli, 37° C. 24 hours
Description: as §4, §5
Escherichia coliK12 W 3110 (E. coli);

With CCCCCC[N+](C)(CCCCCC)Cc1c(C)cc(C)c(C[N+](C)(CCCCCC)CCCCCC)c1C.[Cl-].[Cl-] [BAMT-6, 2,4-bis(N,N-dihexyl-N-methylammoniomethyl)-1,3,5-trimethylbenzene dichloride] the MBC ([1]; ATCC6633, contact 30° C. 30 minutes, read-out: MBC) was less than 2 µg/mL, the “Minimum hemolytic activity concentration Erythrocyte” value (Erythrocyte) was 400 ppm and the MIC [2] was 1 µg/mL. For the same compound, the MBC ([3]; IFO12732, contact 30° C. 30 minutes, read-out: MBC) was less than 2 µg/mL, the MBC ([4]; K12W3110, contact 30° C. 30 minutes, read-out: MBC) was 4 µg/mL and the MBC ([5]; K12OUT8401, contact 30° C. 30 minutes, read-out: MBC) was less than 2 µg/mL. The MBC (Bacillus cereus IFO 3001; IFO3001, contact 30° C. 30 minutes, read-out: MBC) was less than 2 µg/mL, the MBC ([6]; IFO3134, contact 30° C. 30 minutes, read-out: MBC) was less than 2 µg/mL and the MBC ([7]; ATCC13883, contact 30° C. 30 minutes, read-out: MBC) was less than 2 µg/mL. For the same compound, the MBC (Proteus rettgeri NIT 96; Providencia rettgeri, NIT96, contact 30° C. 30 minutes, read-out: MBC) was less than 2 µg/mL and the MBC ([8]; ATCC27583, contact 30° C. 30 minutes, read-out: MBC) was 4 µg/mL.
In the case of CCCCC[N+](C)(CCCCC)Cc1c(C)cc(C)c(C[N+](C)(CCCCC)CCCCC)c1C.[Cl-].[Cl-] [BAMT-5, 2,4-bis(N,N-dipentyl-N-methylammoniomethyl)-1,3,5-trimethylbenzene dichloride], the “Minimum hemolytic activity concentration Erythrocyte” value (Erythrocyte) is reported as 800 ppm and the MIC [2] is reported as 2 µg/mL.
With CCCCCCCC[N+](C)(CCCCCCCC)Cc1ccc(C[N+](C)(CCCCCCCC)CCCCCCCC)cc1.[Cl-].[Cl-] [Example 4BAMP-8C, 1,4-bis(N,N-dioctyl-N-methylammoniomethyl)phenylene dichloride] the “MIC Escherichia coli K12 W 3110” value [2] was 1 ppm.
In the case of CCCC[N+](C)(CCCC)Cc1c(C)cc(C)c(C[N+](C)(CCCC)CCCC)c1C.[Cl-].[Cl-] [BAMT-4, 2,4-bis(N,N-dibutyl-N-methylammoniomethyl)-1,3,5-trimethylbenzene dichloride], the MIC [2] is reported as 8 µg/mL.
For CCCCCC[N+](C)(CCCCCC)Cc1ccccc1C[N+](C)(CCCCCC)CCCCCC.[Cl-].[Cl-] [Example 2BAMP-6C, 1,2-bis(N,N-dihexyl-N-methylammoniomethyl)phenylene dichloride], the “MIC Escherichia coli K12 W 3110” value [2] was 1 ppm.
CCCCCC[N+](C)(CCCC)Cc1ccc(C[N+](C)(CCCC)CCCCCC)cc1.[I-].[I-] (stereo not drawn) [4BAMP-4, 6I, 1,4-bis(N-butyl-N-hexyl-N-methylammoniomethyl)phenylene diiodide] was tested, and the “MIC Escherichia coli K12 W 3110” value [2] was 16 ppm.
In the case of “1,4-bis(N-octyl-N-hexyl-N-methylammoniomethyl)-2,3,5,6-tetramethylphenylene dichloride [BAMD-6, 8]”, the MBC ([1]; contact 30° C. 30 minutes) is reported as less than 2 ppm, the “MIC Escherichia coli K12 W 3110” value [2] is reported as 1 ppm and the MBC ([3]; contact 30° C. 30 minutes) is reported as less than 2 ppm. The MBC ([4]; contact 30° C. 30 minutes) was less than 2 ppm, the MBC ([5]; contact 30° C. 30 minutes) was less than 2 ppm and the MBC (Bacillus cereus IFO 3001; contact 30° C. 30 minutes) was less than 2 ppm. The MBC ([6]; contact 30° C. 30 minutes) was less than 2 ppm, the MBC ([7]; contact 30° C. 30 minutes) was less than 2 ppm and the MBC (Proteus rettgeri NIT 96; contact 30° C. 30 minutes) was less than 2 ppm. The MBC ([8]; contact 30° C. 30 minutes) was less than 2 ppm.
Work on CCCCCCCC[N+](C)(CCCCCCCC)Cc1c(C)cc(C)c(C[N+](C)(CCCCCCCC)CCCCCCCC)c1C.[Cl-].[Cl-] [BAMT-8, 2,4-bis(N,N-dioctyl-N-methylammoniomethyl)-1,3,5-trimethylbenzene dichloride] yielded an MIC [2] of 1 µg/mL.
“1,4-bis(N,N-dioctyl-N-methylammoniomethyl)phenylene di-p-toluenesulfonate [Example 4BAMP-8S]” was tested, and the “MIC Escherichia coli K12 W 3110” value [2] was 1 ppm.
For CCCCC[N+](C)(CCCCC)Cc1c(C)c(C)c(C[N+](C)(CCCCC)CCCCC)c(C)c1C.[Cl-].[Cl-] [BAMD-5, 1,4-bis(N,N-dipentyl-N-methylammoniomethyl)-2,3,5,6-tetramethylphenylene dichloride], the “Minimum hemolytic activity concentration Erythrocyte” value (Erythrocyte) was 800 ppm and the “MIC Escherichia coli K12 W 3110” value [2] was 2 ppm.
In the case of “1,4-bis(N,N-dioctyl-N-methylammoniomethyl)-2,3,5,6-tetramethylphenylene dichloride [BAMD-8]”, the “MIC Escherichia coli K12 W 3110” value [2] is reported as 1 ppm.
“1,4-bis(N-octyl-N-hexyl-N-methylammoniomethyl)phenylene dibromide [4BAMP-6, 8B]” was tested, and the MIC [9] was less than 2 ppm, the MIC [10] was 8 ppm and the MIC [11] was less than 2 ppm. It also gave an MIC [12] of less than 2 ppm and an MIC [13] of 8 ppm.
“1,4-bis(N,N-butyl-N-methylammoniomethyl)-2,3,5,6-tetramethylphenylene dichloride [BAMD-4]” was tested, and the “MIC Escherichia coli K12 W 3110” value [2] was 16 ppm.
For CCCCCCCC[N+](C)(CCCC)Cc1ccc(C[N+](C)(CCCC)CCCCCCCC)cc1.[I-].[I-] (stereo not drawn) [4BAMP-4, 8I, 1,4-bis(N-butyl-N-octyl-N-methylammoniomethyl)phenylene diiodide], the “MIC Escherichia coli K12 W 3110” value [2] was 2 ppm.
For CCCCCCCCCCCC[N+](C)(C)Cc1ccc(C[N+](C)(C)CCCCCCCCCCCC)cc1.[Cl-].[Cl-] [Example 4BADMP-12C, 1,4-bis(N-dodecyl-N,N-dimethylammoniomethyl)phenylene dichloride, reference compound], the “Minimum hemolytic activity concentration Erythrocyte” value (Erythrocyte) was 12.5 ppm.
With “1,4-bis(N,N-dipentyl-N-methylammoniomethyl)phenylene di-p-tolyenesulfonate [Example 4BAMP-5S]” the “Minimum hemolytic activity concentration Erythrocyte” value (Erythrocyte) was 400 ppm and the “MIC Escherichia coli K12 W 3110” value [2] was 16 ppm.
For CCCCCC[N+](C)(CCCCCC)Cc1cccc(C[N+](C)(CCCCCC)CCCCCC)c1.[Cl-].[Cl-] [Example 3BAMP-6C, 1,3-bis(N,N-dihexyl-N-methylammoniomethyl)phenylene dichloride], the “MIC Escherichia coli K12 W 3110” value [2] was 1 ppm.
With CCCCCCCC[N+](C)(CCCCCC)Cc1c(C)cc(C)c(C[N+](C)(CCCCCC)CCCCCCCC)c1C.[Cl-].[Cl-] (stereo not drawn) [BAMT-6, 8, 2,4-bis(N-octyl-N-hexyl-N-methylammoniomethyl)-1,3,5-trimethylbenzene dichloride] the MIC [2] was 1 µg/mL.
CCCCCCCC[n+]1ccc(SCc2ccc(CSc3cc[n+](CCCCCCCC)cc3)cc2)cc1.[I-].[I-] [Example I-8, 4,4′-(p-xylyldithio)-bis(1-octylpyridinium iodide), reference compound] was tested, and the “Minimum hemolytic activity concentration Erythrocyte” value (Erythrocyte) was 50 ppm.
